Here are results for one compound from patent EP4467137A1, “TREATMENT OF FRONTOTEMPORAL DEMENTIA OR FRONTOTEMPORAL LOBAR DEMENTIA” (Universidad Autónoma de Madrid, priority 2023, dated 2024).

One experiment concerns TNF-α mRNA. Briefly: qRT-PCR of TNFα in LPS-exposed BV2 cells. It counts as cell-based, mouse. The note with it: 10 and 30 µM, 24 h LPS. On the procedure: • Figure 1. Compound 1 reduces the inflammatory response against LPS in vitro. (A) Nitric oxide (NO) production in BV2 cells detected by DAF 24 h after LPS exposure and normalized by cell viability measured by MTT (n = 9). (B) qRT-PCR of TNFα (n = 9) in BV2 cells after 24 h LPS exposure. Sulforaphane (Sfn) was used as a positive control. […] Compound 1 decreases the inflammatory process 4 and 24 hours after LPS administration in vivo. Compound 1 (20 mg·kg^-1) daily was injected i.p. four days before the i.p. LPS (0.5 mg·kg^-1) administration. […] Compound 1 ameliorates the resolution of the inflammatory process triggered by LPS. […] (B) Locomotion activity measured by line crossings of an imaginary grid. […] Compound 1 reduced tau seeding in HEK-293 tau FRET biosensor measured by flow cytometer (C). […] Representative images of hyperphosphorylated tau intensity measured by AT8 and AT180 antibodies in three different regions of the hippocampus (GD, CA3 and CA1) (n = 11-12). (B) Quantification AT8 intensity, normalized to CA3 intensity of Sham animals. (C) Quantification of AT180 intensity, normalized to CA3 intensity of Sham animals (n = 9-12). […] Quantification of sarkosyl soluble (n = 10) (C) and insoluble species (D) using AT8 antibody (n = 10). Quantification of sarkosyl soluble (n = 10) (E) and insoluble species (F) using AT180 antibody (n = 10). […]
Background: Quantitative PCR measures a nucleic acid by following its amplification.

For the next experiment, the system named is hyperphosphorylated tau. Briefly: In vivo hTauP301L model: western blot of sarkosyl soluble and insoluble hyperphosphorylated tau. The settings on record: adult mice; 50 mg/kg/day oral, 35 days; sarkosyl insoluble fraction. Further details: species or system mouse. Here is the method: In vivo hTau301L model was induced by stereotaxic injection of AAV-hTauP301L (AAV-hTau) particles as described in [Luengo, Enrique et al. "Implication of type 4 NADPH oxidase (NOX4) in tauopathy." Redox biology vol. 49 (2022): 102210. doi:10.1016/j.redox.2021.102210 ]. Control animals were injected with AAV-GFP. Evaluation of hyperphosphorylated tau in sarkosyl soluble and insoluble fractions; microgliosis; AT8 and AT180 by immunofluorescence; and cognitive test were performed as described previously [Luengo, Enrique et al. "Implication of type 4 NADPH oxidase (NOX4) in tauopathy." Redox biology vol. 49 (2022): 102210. doi:10.1016/j.redox.2021.102210 ].
Oral administration of Compound 1 at different dosages (20 mg·kg^-1 and 50 mg·kg^-1) was administered embedded in gelatine. The compound was given in a mixture of 10 % gelatine from porcine skin and 10 % sucralose in water, heated in a microwave oven. Before Compound 1 addition, gelatine mixture was left at RT. Afterwards, the compound was added, evenly mixed and plated 1 mL·well^-1 in a P24 plate. […]
Example 2.5. […] After 35 days treatment, hyperphosphorylated tau levels were evaluated by immunofluorescence and by WB in soluble and insoluble in sarkosyl fractions. […]
After 35 days of treatment, monomeric and oligomeric forms of tau, soluble and insoluble in sarkosyl, were analysed by western blot. […]
(Immunoblotting shows a protein as a band on a membrane.)

Each structure is given as a SMILES string.

Regarding `COc1ccc2c(c1)CC(c1c[nH]c3ccc(OC)cc13)N2` (stereo not drawn) [Compound 1, 5-Methoxy-3-(5-methoxyindolin-2-yl)-1H-indole], the “TNF-α mRNA” value in the experiment on TNF-α mRNA is listed as “reduced”. In addition, in the experiment with hyperphosphorylated tau, the “insoluble monomers of AT180” value is recorded as “significant reduction” and the “insoluble oligomers of AT180” value is “tendency to reduce”.
